Consider 14 compounds from patent publication US20130303533A1, “AZOLOPYRIDINE AND AZOLOPYRIMIDINE COMPOUNDS AND METHODS OF USE THEREOF” (AMBIT BIOSCIENCES CORPORATION, priority 2010, published 2013).

The IC50 is the concentration that gives 50% inhibition. In general, Kd refers to the equilibrium constant for the complex coming apart. Low readings indicate tighter binding, high ones weaker binding.

Test [1] deals with GM-CSFR/JAK2/STAT5 pathway. Briefly: CSTF-1 cell-based reporter assay. As to conditions: Homo sapiens; csTF-1 cells, GM-CSF at 2 ng/mL, 4 hours, beta-lactamase reporter; read-out: Cell Assay: CS TF-1 reporter assay IC50. On the procedure:
CSTF-1 Cell-Based Reporter Assay
CSTF-1 cells are derived from the human erythroleukemia cell line that is growth dependent on GM-CSF and has an intact GM-CSFR/JAK2/STAT5 pathway. The cell line contains stably integrated beta-lactamase reporter gene under the control of the […] (irf 1) response element recognized by the activated transcription factor STAT5. csTF-1 cells (Invitrogen K1219) were washed with assay media (97% OPTIMEM/0.5% dialyzed FBS/0.1 mM NEAA/1 mM Na pyr/P/S) and seeded in the same media at 5×10^5 cell/mL in T150 flask. After 16 hour incubation, cells were seeded at 2×10^5 cell/well in 50 μl volume, into Costar, clear bottom, 96-well assay plates. Serial dilutions of compounds were added to the plates with final DMSO concentration at 0.5% and GM-CSF at 2 ng/mL and the plates were then incubated at 30° C. and 5% CO2 for 4 hours. The plates were brought to room temperature before adding Substrate Mixture according to manufacturer's protocol (Invitrogen, Catalog #K1085). The assay plates containing the substrate mixture were incubated in the dark at room temperature for 2 hours. Blue and green fluorescence was measured with excitation at 409 nm and emission at 460 nm (for blue) and excitation at 409 nm and emission at 530 nm (for green) using Spectra Max Gemini EM.
In general terms: A reporter such as luciferase makes a cellular process visible.

The next test has as its target T1, JAK2 (Homo sapiens, UniProt O60674).
T1 construct: made in house; host or cells: T7 phage display or HEK-293 cells (alternatives)
The test can be described thus: Competition binding assay to determine binding constants (Kd), JAK2. The text has this: (§1) Competition Binding Assay to Determine Binding Constants (Kd) of the Compounds Against JAK Kinases
(§2) Competition binding assays used herein were developed, validated and performed as described in Fabian et al., Nature Biotechnology 2005, 23, 329-336. Kinases were produced as fusions to T7 phage (See, Fabian et al. or WO04/015142) or alternatively, the kinases were expressed in HEK-293 cells and subsequently tagged with DNA for PCR detection (See, WO08/005,310). For the binding assays, streptavidin-coated magnetic beads were treated with biotinylated affinity ligands for 30 min at rt to generate affinity resins. The liganded beads were blocked with excess biotin and washed with blocking buffer (SeaBlock (Pierce), 1% BSA, 0.05% Tween 20, 1 mM DTT) to remove unbound ligand and to reduce non-specific binding. Binding reactions were assembled by combining kinase, liganded affinity beads, and test compounds in 1× binding buffer (20% SeaBlock, 0.17×PBS, 0.05% Tween 20, 6 mM DTT). Test compounds were prepared as 100× stocks in DMSO and rapidly diluted into the aqueous environment. DMSO was added to control assays lacking a test compound. Primary screen interactions were performed in polypropylene 384-well plates in a final volume of 34 μL, while Kd determinations were performed in polystyrene 96-well plates in a final volume of 135 μL. The assay plates were incubated at room temperature with shaking for 1 hour, long enough for binding reactions to reach equilibrium, and the affinity beads were washed extensively with wash buffer (1×PBS, 0.05% Tween 20) to remove unbound protein. The beads were then resuspended in elution buffer (1×PBS, 0.05% Tween 20, 2 μM non-biotinylated affinity ligand) and incubated at room temperature with shaking for 30 min. The kinase concentration in the eluates was measured by quantitative PCR. Each kinase was tested individually against each compound. Kds were determined using eleven serial threefold dilutions. A selectivity score, which is a quantitative measure of selectivity of a compound against a panel of enzymes, may be calculated for a compound by dividing the number of enzymes for which a compound meets a set criteria, (for example, a binding constant of 100 nM or less), by the total number of enzymes tested.

The target of a further test is T2, JAK3 (Homo sapiens, UniProt P52333).
T2 construct: made in house; host or cells: T7 phage display or HEK-293 cells (alternatives)
T2 sequence (P52333 1-1124): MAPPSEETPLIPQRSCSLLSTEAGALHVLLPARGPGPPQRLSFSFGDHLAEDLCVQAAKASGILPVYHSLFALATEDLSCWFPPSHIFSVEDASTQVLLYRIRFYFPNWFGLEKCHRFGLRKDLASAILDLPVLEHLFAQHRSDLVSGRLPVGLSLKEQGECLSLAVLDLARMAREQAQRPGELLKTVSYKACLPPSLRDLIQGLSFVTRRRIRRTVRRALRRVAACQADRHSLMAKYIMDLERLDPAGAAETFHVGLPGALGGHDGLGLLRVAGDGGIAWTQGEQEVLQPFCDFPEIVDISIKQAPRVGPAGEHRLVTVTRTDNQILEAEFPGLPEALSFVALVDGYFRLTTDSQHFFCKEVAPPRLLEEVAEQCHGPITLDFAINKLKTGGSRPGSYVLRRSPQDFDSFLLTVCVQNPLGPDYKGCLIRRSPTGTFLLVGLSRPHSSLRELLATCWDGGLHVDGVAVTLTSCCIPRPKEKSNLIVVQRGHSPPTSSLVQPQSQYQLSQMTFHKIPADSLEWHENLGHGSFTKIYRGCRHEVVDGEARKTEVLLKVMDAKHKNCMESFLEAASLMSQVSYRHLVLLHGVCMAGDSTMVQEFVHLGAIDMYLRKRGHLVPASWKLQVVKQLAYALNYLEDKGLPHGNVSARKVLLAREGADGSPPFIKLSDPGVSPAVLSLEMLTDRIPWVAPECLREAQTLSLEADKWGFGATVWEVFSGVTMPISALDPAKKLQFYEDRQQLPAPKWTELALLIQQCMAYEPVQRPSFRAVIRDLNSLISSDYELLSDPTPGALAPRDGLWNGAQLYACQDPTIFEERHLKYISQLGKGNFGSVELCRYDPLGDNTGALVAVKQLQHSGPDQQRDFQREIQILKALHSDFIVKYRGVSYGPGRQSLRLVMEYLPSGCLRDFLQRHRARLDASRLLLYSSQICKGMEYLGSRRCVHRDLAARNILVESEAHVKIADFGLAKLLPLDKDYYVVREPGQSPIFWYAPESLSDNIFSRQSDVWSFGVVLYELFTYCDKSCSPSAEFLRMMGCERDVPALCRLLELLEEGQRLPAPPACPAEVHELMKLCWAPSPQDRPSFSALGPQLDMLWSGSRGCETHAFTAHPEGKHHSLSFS
Briefly: Competition binding assay to determine binding constants (Kd), JAK3.
From the text: as §1, §2

Another test concerns the target T3, TYK2 (Homo sapiens, UniProt P29597).
T3 construct: made in house; host or cells: T7 phage display or HEK-293 cells (alternatives)
Briefly: Competition binding assay to determine binding constants (Kd), TYK2.
From the text: as §1, §2

T1 sequence (O60674 whole entry): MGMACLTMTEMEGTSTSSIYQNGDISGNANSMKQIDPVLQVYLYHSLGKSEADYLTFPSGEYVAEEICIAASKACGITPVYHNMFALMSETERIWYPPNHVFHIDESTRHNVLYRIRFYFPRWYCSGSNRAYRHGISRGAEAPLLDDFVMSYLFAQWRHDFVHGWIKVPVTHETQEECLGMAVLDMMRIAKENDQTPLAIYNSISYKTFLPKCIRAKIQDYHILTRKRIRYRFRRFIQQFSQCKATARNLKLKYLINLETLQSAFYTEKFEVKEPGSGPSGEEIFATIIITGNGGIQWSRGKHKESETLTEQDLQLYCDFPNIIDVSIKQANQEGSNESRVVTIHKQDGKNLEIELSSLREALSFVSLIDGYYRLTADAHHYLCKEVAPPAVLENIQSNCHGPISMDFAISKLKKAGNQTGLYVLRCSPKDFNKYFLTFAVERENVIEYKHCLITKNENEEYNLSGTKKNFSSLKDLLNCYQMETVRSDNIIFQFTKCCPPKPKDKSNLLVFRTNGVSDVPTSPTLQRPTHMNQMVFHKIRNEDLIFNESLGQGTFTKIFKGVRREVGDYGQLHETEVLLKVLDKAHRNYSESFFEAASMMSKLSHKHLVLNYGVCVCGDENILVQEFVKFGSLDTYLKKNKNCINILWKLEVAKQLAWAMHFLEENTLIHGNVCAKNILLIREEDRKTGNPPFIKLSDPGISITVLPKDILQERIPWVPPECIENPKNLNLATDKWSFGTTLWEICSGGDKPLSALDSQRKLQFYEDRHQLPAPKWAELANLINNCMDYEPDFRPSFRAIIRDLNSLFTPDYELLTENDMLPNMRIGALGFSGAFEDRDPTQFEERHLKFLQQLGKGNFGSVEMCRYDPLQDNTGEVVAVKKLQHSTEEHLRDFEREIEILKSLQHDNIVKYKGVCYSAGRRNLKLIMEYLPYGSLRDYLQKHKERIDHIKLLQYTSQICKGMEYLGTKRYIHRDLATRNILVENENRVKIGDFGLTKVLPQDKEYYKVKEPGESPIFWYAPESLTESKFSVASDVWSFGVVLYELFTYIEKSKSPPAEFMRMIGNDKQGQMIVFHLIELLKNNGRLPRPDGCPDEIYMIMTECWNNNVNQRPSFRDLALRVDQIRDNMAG
T3 sequence (P29597 whole entry): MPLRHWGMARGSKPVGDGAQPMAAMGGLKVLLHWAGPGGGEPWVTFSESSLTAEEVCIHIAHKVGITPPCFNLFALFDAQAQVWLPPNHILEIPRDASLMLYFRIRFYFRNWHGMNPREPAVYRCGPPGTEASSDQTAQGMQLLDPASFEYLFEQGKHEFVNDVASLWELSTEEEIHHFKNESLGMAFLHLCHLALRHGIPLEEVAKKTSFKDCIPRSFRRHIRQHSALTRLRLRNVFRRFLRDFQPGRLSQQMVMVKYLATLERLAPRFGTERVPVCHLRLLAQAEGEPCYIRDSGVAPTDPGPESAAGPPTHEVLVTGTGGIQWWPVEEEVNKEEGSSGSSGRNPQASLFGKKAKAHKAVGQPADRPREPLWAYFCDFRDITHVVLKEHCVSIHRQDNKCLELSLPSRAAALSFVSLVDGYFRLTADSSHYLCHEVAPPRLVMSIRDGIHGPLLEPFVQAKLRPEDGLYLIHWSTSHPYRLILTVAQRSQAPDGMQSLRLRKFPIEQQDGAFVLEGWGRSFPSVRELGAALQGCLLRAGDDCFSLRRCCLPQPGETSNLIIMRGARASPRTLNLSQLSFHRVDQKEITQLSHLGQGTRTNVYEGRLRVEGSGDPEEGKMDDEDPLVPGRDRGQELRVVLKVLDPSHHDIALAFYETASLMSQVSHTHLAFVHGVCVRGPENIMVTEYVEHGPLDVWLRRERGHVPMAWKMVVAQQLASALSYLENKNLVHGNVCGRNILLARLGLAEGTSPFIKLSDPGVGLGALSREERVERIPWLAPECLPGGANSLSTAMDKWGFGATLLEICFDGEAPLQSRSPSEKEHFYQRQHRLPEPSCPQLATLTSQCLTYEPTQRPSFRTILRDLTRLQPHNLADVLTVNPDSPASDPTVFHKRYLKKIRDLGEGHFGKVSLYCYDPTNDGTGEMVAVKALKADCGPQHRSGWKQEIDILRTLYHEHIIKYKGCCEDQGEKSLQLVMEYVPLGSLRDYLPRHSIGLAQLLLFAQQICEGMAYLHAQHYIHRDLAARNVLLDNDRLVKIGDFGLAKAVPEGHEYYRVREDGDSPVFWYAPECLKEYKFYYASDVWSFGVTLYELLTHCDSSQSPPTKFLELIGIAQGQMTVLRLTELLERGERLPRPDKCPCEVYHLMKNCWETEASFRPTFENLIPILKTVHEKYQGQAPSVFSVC

On to `Cc1cc(Nc2nc(S(=O)(=O)c3ccc(F)cc3)nc3[nH]ncc23)n[nH]1` [Example 27, 6-(4-fluorophenylsulfonyl)-N-(5-methyl-1H-pyrazol-3-yl)-1H-pyrazolo[3,4-d]pyrimidin-4-amine], for which, in test [1], the IC50 lay within 0.1 to 0.5 µM. Moreover, the Kd at JAK2 is not above 0.001 µM; at JAK3, 0.01 to 0.1 µM; on TYK2 it was not above 0.01 µM.
For `Cc1cc(Nc2nc(C(F)(F)c3ccc(F)cc3)nc3nc(N4CCOCC4)sc23)n[nH]1` [Example 37, 5-(difluoro(4-fluorophenyl)methyl)-N-(5-methyl-1H-pyrazol-3-yl)-2-morpholinothiazolo[4,5-d]pyrimidin-7-amine] the same measures were 0.1 to 0.5 µM, not above 0.001 µM, not above 0.01 µM and not above 0.01 µM.
For `Cc1cc(Nc2nc(S(=O)(=O)c3ccc(F)cc3)nc3c2cnn3-c2ccccc2)n[nH]1` [Example 31, 6-(4-fluorophenylsulfonyl)-N-(5-methyl-1H-pyrazol-3-yl)-1-phenyl-1H-pyrazolo[3,4-d]pyrimidin-4-amine] the same measures were more than 0.5 µM, 0.001 to 0.01 µM, more than 0.1 µM and 0.01 to 0.1 µM.
On to `Cc1cc(Nc2nc(S(=O)(=O)c3ccc(F)cc3)nc3c2ccn3C(C)C)n[nH]1` [Example 10, 2-(4-fluorophenylsulfonyl)-7-isopropyl-N-(5-methyl-1H-pyrazol-3-yl)-7H-pyrrolo[2,3-d]pyrimidin-4-amine], for which the IC50 in test [1] is not above 0.1 µM. The results for the Kd at JAK2, on JAK3 and at TYK2 were not above 0.001 µM, not above 0.01 µM and not above 0.01 µM, respectively.
On to `Cc1cc(Nc2nc(C(F)(F)c3ccc(F)cn3)nc3nn(C4CCCC4)cc23)n[nH]1` [Example 44, 2-cyclopentyl-6-(difluoro(5-fluoropyridin-2-yl)methyl)-N-(5-methyl-1H-pyrazol-3-yl)-2H-pyrazolo[3,4-d]pyrimidin-4-amine], for which the IC50 in test [1] was not above 0.1 µM. The Kd is not above 0.001 µM on JAK2, not above 0.01 µM on JAK3 and not above 0.01 µM on TYK2.
Take `Cc1cc(Nc2nc(S(=O)(=O)c3ccc(F)cc3)nc3c2ccn3CCS(C)(=O)=O)n[nH]1` [Example 17, 2-(4-fluorophenylsulfonyl)-N-(5-methyl-1H-pyrazol-3-yl)-7-(2-(methylsulfonyl)ethyl)-7H-pyrrolo[2,3-d]pyrimidin-4-amine]: the IC50 in test [1] fell in the range of 0.1 to 0.5 µM. The Kd was not above 0.001 µM on JAK2, not above 0.01 µM on JAK3 and not above 0.01 µM on TYK2.
With `[O-][S+](c1ccc(F)cc1)c1nc(Nc2cc[nH]n2)c2cc[nH]c2n1` (racemic) [Example 1, (R,S)-2-(4-fluorophenylsulfinyl)-N-(1H-pyrazol-3-yl)-7H-pyrrolo[2,3-d]pyrimidin-4-amine], the IC50 in test [1] is not above 0.1 µM. Further, the Kd at JAK2 was not above 0.001 µM; at JAK3, 0.01 to 0.1 µM; at TYK2 it was not above 0.01 µM.
For `Cc1cc(Nc2nc(C(F)(F)c3ccc(F)cc3)nc3nc(C#N)sc23)n[nH]1` [Example 40, 5-(difluoro(4-fluorophenyl)methyl)-7-(5-methyl-1H-pyrazol-3-ylamino)thiazolo[4,5-d]pyrimidine-2-carbonitrile] the same measures were more than 0.5 µM, 0.001 to 0.01 µM, 0.01 to 0.1 µM and not above 0.01 µM.
For `Cc1cc(Nc2nc(S(=O)(=O)c3ccc(F)cc3)nc3c2cnn3CCO)n[nH]1` [Example 23, 2-(6-(4-fluorophenylsulfonyl)-4-(5-methyl-1H-pyrazol-3-ylamino)-1H-pyrazolo[3,4-d]pyrimidin-1-yl)ethanol] the same measures were 0.1 to 0.5 µM, not above 0.001 µM, 0.01 to 0.1 µM and not above 0.01 µM.
As for `Cc1cc(Nc2nc([S+]([O-])c3ccc(F)cc3)nc3[nH]ccc23)n[nH]1` (racemic) [Example 2, (R,S)-2-(4-fluorophenylsulfinyl)-N-(5-methyl-1H-pyrazol-3-yl)-7H-pyrrolo[2,3-d]pyrimidin-4-amine], the IC50 in test [1] is not above 0.1 µM. The Kd is not above 0.001 µM on JAK2, not above 0.01 µM at JAK3 and not above 0.01 µM on TYK2.
In the case of `Cc1cc(Nc2nc(S(=O)(=O)c3ccc(F)cc3)nc3c2ccn3C)n[nH]1` [Example 9, 2-(4-fluorophenylsulfonyl)-7-methyl-N-(5-methyl-1H-pyrazol-3-yl)-7H-pyrrolo[2,3-d]pyrimidin-4-amine], the 50% inhibitory concentration (IC50) in test [1] is not above 0.1 µM. Moreover, the Kd on JAK2 is not above 0.001 µM; on JAK3, not above 0.01 µM; on TYK2, not above 0.01 µM.
For `O=S(=O)(c1ccc(F)cc1)c1nc(Nc2cc[nH]n2)c2cc[nH]c2n1` [Example 3, 2-(4-fluorophenylsulfonyl)-N-(1H-pyrazol-3-yl)-7H-pyrrolo[2,3-d]pyrimidin-4-amine], the IC50 in test [1] is not above 0.1 µM. Further, the figures for the Kd on JAK2, at JAK3 and at TYK2 were not above 0.001 µM, not above 0.01 µM and not above 0.01 µM, respectively.
With `Cc1cc(Nc2nc(C(O)c3ccc(F)cc3)nc3nn(C)cc23)n[nH]1` (racemic) [Example 22, (R,S)-(4-fluorophenyl)(2-methyl-4-(5-methyl-1H-pyrazol-3-ylamino)-2H-pyrazolo[3,4-d]pyrimidin-6-yl)methanol], the IC50 in test [1] fell in the range of 0.1 to 0.5 µM. The Kd at JAK2 is not above 0.001 µM; on JAK3, 0.01 to 0.1 µM; on TYK2 it was not above 0.01 µM.
`C=Cn1ncc2c(Nc3cc(C)[nH]n3)nc(C(F)(F)c3ccc(F)cc3)nc21` [Example 33, 6-(difluoro(4-fluorophenyl)methyl)-N-(5-methyl-1H-pyrazol-3-yl)-1-vinyl-1H-pyrazolo[3,4-d]pyrimidin-4-amine]: the IC50 in test [1] was in the range of 0.1 to 0.5 µM. For the same compound, the Kd lay in the range of 0.001 to 0.01 µM at JAK2, 0.01 to 0.1 µM on JAK3 and 0.01 to 0.1 µM at TYK2.
